According to patent US10512648B2, “Tyrosine kinase inhibitors for use in a method of treating cancer in association with a reduced caloric intake” (UNIVERSITÀ DEGLI STUDI DI GENOVA, priority 2014, dated 2019):

Assays:
[1] = system: phospho-ERK (Thr202/Tyr204); assay: immunoblotting of phospho-ERK and total ERK in H3122 cell lysates; format: cell-based; settings: H3122, 400 nM, 24 h; starved cells compared with cells in standard conditions
Method: With reference to FIG. 1E, 10^5 H3122 cells were plated in 6 well plates in regular DMEM medium containing 10% FBS. 24 h later, the cell medium was removed and cells were incubated for 24 h either in the same medium (CTR) or in low-glucose (0.5 g/L) DMEM containing 1% FBS (STS). 24 h later cells were treated or not with 400 nM Crizotinib. After 24 h, cell were used for cell lysate preparation and phospho-ERK (Thr202/Tyr204), and total ERK levels were detected by immunoblotting.

A549 cells = assay: viability of A549 cells, sulforodhamine B-based assay, with or without STS; format: cell-based
Method: With reference to FIG. 1D, 3×10^3 A549 cells were plated in 96 well plates and treated with Crizotinib in the presence or absence of STS, as in the experiments of FIGS. 1A and 1B, before viability was measured in sulforodhamine B-based assays.

[2] = system: H3122 cells engineered to overexpress HRAS or HRAS V12; assay: sensitivity of H3122 cells engineered to overexpress HRAS or HRAS V12; format: cell-based; settings: data not shown
H3122 cells [3] = assay: H3122 cells in Petri dishes, sulforodhamine B staining after treatment and recovery; format: cell-based; settings: H3122, STS conditions, 400 nM, 5 days then 2 days regular medium (FIG. 1C)
Method: With reference to FIG. 1C, 10^5 H3122 cells were plated in 60 mm Petri dishes in regular DMEM medium. 24 h later, the cell medium was removed and cells were incubated for 24 h either in regular medium (CTR) or in STS conditions. 24 h later 400 nM Crizotinib was added (or not) to the cells. 5 days later, the cell medium was removed and the cells were cultured for two additional days in regular DMEM medium. 48 h later, the plates were stained with sulforodhamine B and photographed.

H3122 cells [4] = assay: viability of H3122 cells, sulforodhamine B-based assay, regular medium (CTR) vs STS conditions; format: cell-based; settings: H3122 NSCLC cells (EML4-ALK translocation); low glucose 0.5 g/L, 1% FBS (STS) vs regular medium; 72 h
Method: With reference to FIGS. 1A and 1B, 3×10^3 H3122 cells were plated in 96 well plates in regular DMEM medium containing 10% FBS. 24 h later, the cell medium was removed and cells were incubated for 24 h either in the same medium (CTR) or in low-glucose (0.5 g/L) DMEM medium containing 1% FBS (STS). 24 h later cells were treated or not with the indicated concentrations of Crizotinib or […] (TAE). 72 h later, viability was measured with sulforodhamine B-based assays.

H3122 xenografts = assay: H3122 xenograft growth in mice; format: in vivo, BALB/c athymic mice (nu+/nu+)
Method: With reference to FIG. 2A, six- to eight-week-old BALB/c athymic mice (nu+/nu+) were injected s.c. with 5×10^6 H3122 cells. When tumors became palpable, mouse were randomly assigned to one of four arms (six mice per treatment arm): control—normal diet (—); Crizotinib—normal diet with 3 cycles of Crizotinib (25 mg/kg/day via oral gavage for 5 days a week, Mon-Fri); STS [fasting (water only) for 48 h (Sun-Tue) for three cycles at 1-week intervals]; STS+Crizotinib. Tumor size was measured daily and tumor volume was calculated using the formula: tumor volume=(w^2×W)×π/6, where “w” and “W” are “minor side” and “major side” (in mm), respectively. At the end of treatment, mice were euthanized and tumor masses were excised and weighted (see FIG. 2B). Mouse weight was also monitored daily.

AKT and ERK1/2 signaling [5] = assay: immunoblotting of phospho-AKT, total AKT, phospho-ERK and total ERK in BT474 cell lysates; format: cell-based; settings: BT474, 100 nM, 24 h; STS-mimicking conditions compared with Lapatinib alone (FIG. 4B)
Method: (§1) With reference to FIGS. 4A-C, 10^5 SKBR3 (FIG. 4A) or BT474 (FIG. 4B) cells were plated in 6 well plates in regular DMEM medium containing 10% FBS. 24 h later, the cell medium was removed and cells were incubated for 24 h either in the same medium (CTR) or in low-glucose (0.5 g/L) DMEM medium containing 1% FBS (STS). 24 h later cells were treated or not with 100 nM Lapatinib. After 24 h, cell were either used for cell lysate preparation or for flow cytometry assays. Cell lysates were used for phospho-AKT (Ser473), total AKT, phospho-ERK (Thr202/Tyr204), and total ERK level detection by immunoblotting (FIGS. 4A and 4B). Flow cytometry (with a FACS Calibur, BD) was used to estimate cell size (FSC) by acquiring 10,000 events per cell sample (FIG. 4C).

SKBR3 cells = assay: viability of SKBR3 cells, sulforodhamine B-based assay, CTR vs STS; format: cell-based; settings: SKBR3 HER2+ BC cells, 100 nM, 72 h
Method: With reference to FIGS. 3A and 3B, 3×10^3 SKBR3 (FIG. 3A) or BT474 (FIG. 3B) cells/well were plated in 96 well plates in regular DMEM medium containing 10% FBS and 2.5 g/L glucose. 24 h later, the cell medium was removed and cells were incubated for 24 h either in the same medium (CTR) or in low-glucose (0.5 g/L) DMEM medium containing 1% FBS (STS). 24 h later cells were treated or not with 100 nM Lapatinib. 72 h later, viability was measured in sulforodhamine B-based assays.
With reference to FIGS. 3D and 3E, BT474 or MCF7 cells were plated as detailed with regard to FIGS. 3A and 3B, treated with 100 nM CP724714 (FIG. 3D) or Lapatinib (FIG. 3E) with or without STS conditions as detailed with respect to FIGS. 3A and 3B before viability was detected.

AKT and ERK1/2 signaling [6] = assay: immunoblotting of phospho-AKT, total AKT, phospho-ERK and total ERK in SKBR3 cell lysates; format: cell-based; settings: SKBR3, 100 nM, 24 h; STS-mimicking conditions compared with Lapatinib alone (FIG. 4A)
Method: as §1

BT474 cells = assay: viability of BT474 cells, sulforodhamine B-based assay, CTR vs STS; format: cell-based; settings: BT474 HER2+ BC cells, 100 nM, 72 h
MCF7 cells = assay: viability of MCF7 cells, with or without STS conditions; format: cell-based

`C[C@@H](Oc1cc(-c2cnn(C3CCNCC3)c2)cnc1N)c1c(Cl)ccc(F)c1Cl` [Crizotinib] was tested. Which “blocking of MAPK pathway signaling (ERK1/2 phosphorylation)” value [1] did it give?
The value was “more effective at blocking signaling through the MAPK pathway”.

And the “sensitivity of A549 cells (viability)” value (A549 cells; A549 NSCLC cells without EML4-ALK translocation)?
Its value is “insensitive”.

And the “effect of STS on activity in A549 cells” value (A549 cells; A549 cells, STS vs regular medium)?
Its value is “did not increase the activity”.

What about the “sensitivity of HRAS or HRAS V12 overexpressing H3122 cells” value [2] of the same compound?
Its value is “resistant”.

And the “killing of NSCLC cells” value (H3122 cells [3])?
The value was “virtual complete killing”.

And the “effect of STS conditions on activity (viability of H3122 cells)” value (H3122 cells [4])?
Its value is “strongly potentiated”.

What about the “activity on H3122 xenografts of the combination with fasting” value (H3122 xenografts; 25 mg/kg/day oral gavage plus 48 h fasting cycles, compared with each treatment alone, p<0.05) of the same compound?
Its value is “more active than either type of treatment alone”.

And the “growth of H3122 xenografts” value (H3122 xenografts; normal diet, 25 mg/kg/day oral gavage, 5 days a week, 3 cycles)?
Its value is “effectively reduced the growth”.

`COc1cc(N2CCC(N3CCN(C)CC3)CC2)ccc1Nc1ncc(Cl)c(Nc2ccccc2S(=O)(=O)C(C)C)n1` [TAE684] was tested. Which “effect of STS conditions on activity (viability of H3122 cells)” value (H3122 cells [4]) did it give?
The value was “strongly potentiated”.

`CS(=O)(=O)CCNCc1ccc(-c2ccc3ncnc(Nc4ccc(OCc5cccc(F)c5)c(Cl)c4)c3c2)o1` [Lapatinib] was tested. Which “inhibition of AKT and ERK1/2 signaling” value (AKT and ERK1/2 signaling [5]) did it give?
Its value is “more pronounced inhibition”.

What about the “sensitization by STS conditions (viability of SKBR3 cells)” value (SKBR3 cells) of the same compound?
Its value is “strongly sensitized”.

What about the “inhibition of AKT and ERK1/2 signaling” value (AKT and ERK1/2 signaling [6]) of the same compound?
The value was “more pronounced inhibition”.

What about the “sensitization by STS conditions (viability of BT474 cells)” value (BT474 cells) of the same compound?
The value was “strongly sensitized”.

And the “sensitivity of MCF7 cells (viability)” value (MCF7 cells; MCF7 cells without HER2 amplification, 100 nM)?
The value was “insensitive”.

What about the “effect of STS on activity in MCF7 cells” value (MCF7 cells; MCF7 cells, STS vs CTR) of the same compound?
The value was “failed to enhance the activity”.
